# Laboratory results as given in the kinase profiling compilation of Christmann-Franck et al. (2016).
# Key:
# Assay in all cases: radiometric filter-binding kinase assay, Kinase HotSpot
# Settings in all cases: compound 0.5 µM; ATP 10 µM
# [1] = target: CDK6 CCND3 (human) (UniProt P30281+Q00534)
# [2] = target: TAOK3 (human) (UniProt Q9H2K8)
# [3] = target: FGFR4 (human) (UniProt P22455)
# [4] = target: RET (human) (UniProt P07949)
# [5] = target: CAMK1D (human) (UniProt Q8IU85)
# [6] = target: MAPKAPK3 (human) (UniProt Q16644)
# Sequence of MAPKAPK3 (human) (Q16644 whole entry, looked up): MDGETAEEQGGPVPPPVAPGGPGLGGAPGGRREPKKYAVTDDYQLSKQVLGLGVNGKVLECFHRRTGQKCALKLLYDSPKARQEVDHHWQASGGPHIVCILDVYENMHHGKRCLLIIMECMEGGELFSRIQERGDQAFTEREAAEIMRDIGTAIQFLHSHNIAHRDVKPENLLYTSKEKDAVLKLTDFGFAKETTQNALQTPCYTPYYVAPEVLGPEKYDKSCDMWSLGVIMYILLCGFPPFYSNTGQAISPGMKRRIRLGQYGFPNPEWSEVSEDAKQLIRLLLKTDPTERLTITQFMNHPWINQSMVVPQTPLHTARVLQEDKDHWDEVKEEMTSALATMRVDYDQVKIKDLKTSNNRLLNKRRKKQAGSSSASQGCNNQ
# [7] = target: FLT3 (human) (UniProt P36888)
# Sequence of FLT3 (human) (P36888 whole entry, looked up): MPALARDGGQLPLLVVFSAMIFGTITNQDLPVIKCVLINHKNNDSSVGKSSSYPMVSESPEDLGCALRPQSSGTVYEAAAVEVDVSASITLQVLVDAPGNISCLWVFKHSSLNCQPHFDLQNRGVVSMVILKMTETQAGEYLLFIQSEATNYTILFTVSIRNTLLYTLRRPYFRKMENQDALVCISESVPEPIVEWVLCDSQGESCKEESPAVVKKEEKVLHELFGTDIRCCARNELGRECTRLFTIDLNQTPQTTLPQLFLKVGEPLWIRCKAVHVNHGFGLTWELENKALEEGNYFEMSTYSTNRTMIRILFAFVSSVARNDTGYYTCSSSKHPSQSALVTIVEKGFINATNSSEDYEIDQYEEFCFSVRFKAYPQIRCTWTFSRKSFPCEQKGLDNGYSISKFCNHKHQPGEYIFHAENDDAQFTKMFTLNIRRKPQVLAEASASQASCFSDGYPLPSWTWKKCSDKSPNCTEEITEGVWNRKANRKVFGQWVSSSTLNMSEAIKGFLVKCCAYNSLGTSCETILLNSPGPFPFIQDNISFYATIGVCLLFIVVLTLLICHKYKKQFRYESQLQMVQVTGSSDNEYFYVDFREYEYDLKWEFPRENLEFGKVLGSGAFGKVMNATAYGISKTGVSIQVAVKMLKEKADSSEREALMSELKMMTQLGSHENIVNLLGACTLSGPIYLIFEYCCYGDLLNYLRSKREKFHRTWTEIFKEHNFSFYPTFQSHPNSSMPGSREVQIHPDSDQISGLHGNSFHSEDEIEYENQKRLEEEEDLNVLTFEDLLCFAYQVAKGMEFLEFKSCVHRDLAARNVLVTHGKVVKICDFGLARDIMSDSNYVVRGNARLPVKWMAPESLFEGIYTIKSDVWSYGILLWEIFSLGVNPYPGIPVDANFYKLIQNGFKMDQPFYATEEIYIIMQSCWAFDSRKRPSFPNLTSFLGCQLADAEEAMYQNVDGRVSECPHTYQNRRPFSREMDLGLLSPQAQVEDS
# [8] = target: NEK1 (human) (UniProt Q96PY6)
# [9] = target: JAK3 JH1 JH2 (human) (UniProt P52333)
# [10] = target: PAK2 (human) (UniProt Q13177)
# [11] = target: ACVR1 (human) (UniProt Q04771)
# Sequence of ACVR1 (human) (Q04771 whole entry, looked up): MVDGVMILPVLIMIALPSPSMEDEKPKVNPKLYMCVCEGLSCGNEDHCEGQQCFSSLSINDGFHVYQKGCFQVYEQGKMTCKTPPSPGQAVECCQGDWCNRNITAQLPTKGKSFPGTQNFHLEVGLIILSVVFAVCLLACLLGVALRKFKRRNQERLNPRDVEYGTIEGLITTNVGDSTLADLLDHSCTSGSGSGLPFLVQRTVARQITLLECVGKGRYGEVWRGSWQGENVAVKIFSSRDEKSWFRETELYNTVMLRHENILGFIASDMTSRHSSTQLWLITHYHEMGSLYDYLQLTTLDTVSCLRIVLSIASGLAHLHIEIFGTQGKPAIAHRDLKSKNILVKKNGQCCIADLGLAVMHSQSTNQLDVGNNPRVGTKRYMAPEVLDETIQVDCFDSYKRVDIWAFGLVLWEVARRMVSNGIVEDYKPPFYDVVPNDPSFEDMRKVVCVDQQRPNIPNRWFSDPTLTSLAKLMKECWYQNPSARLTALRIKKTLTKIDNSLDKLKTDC
# [12] = target: NTRK1 (human) (UniProt P04629)
# Sequence of NTRK1 (human) (P04629 whole entry, looked up): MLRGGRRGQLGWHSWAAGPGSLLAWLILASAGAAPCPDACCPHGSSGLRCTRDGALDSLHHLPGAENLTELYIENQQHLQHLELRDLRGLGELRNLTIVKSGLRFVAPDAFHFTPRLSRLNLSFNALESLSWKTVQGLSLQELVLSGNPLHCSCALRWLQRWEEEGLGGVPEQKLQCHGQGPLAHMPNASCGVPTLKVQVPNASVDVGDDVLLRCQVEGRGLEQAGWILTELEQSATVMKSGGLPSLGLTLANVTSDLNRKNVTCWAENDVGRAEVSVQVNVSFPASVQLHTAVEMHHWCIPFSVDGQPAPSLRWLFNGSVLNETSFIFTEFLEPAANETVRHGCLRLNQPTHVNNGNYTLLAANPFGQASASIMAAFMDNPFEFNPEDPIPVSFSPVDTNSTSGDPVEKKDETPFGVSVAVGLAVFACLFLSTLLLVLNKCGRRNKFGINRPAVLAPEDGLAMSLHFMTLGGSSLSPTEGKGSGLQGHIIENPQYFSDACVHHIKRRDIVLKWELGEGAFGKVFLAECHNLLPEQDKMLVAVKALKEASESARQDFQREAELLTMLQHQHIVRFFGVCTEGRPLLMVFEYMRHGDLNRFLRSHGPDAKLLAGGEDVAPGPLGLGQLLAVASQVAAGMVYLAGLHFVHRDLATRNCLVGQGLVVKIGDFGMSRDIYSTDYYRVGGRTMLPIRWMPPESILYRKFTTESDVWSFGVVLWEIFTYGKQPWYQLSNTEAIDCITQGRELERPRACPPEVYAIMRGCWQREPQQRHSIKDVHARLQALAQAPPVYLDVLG
# [13] = target: MUSK (human) (UniProt O15146)
# [14] = target: MYLK2 (human) (UniProt Q9H1R3)
# [15] = target: PDGFRB (human) (UniProt P09619)
# [16] = target: ERBB4 (human) (UniProt Q15303)
# [17] = target: IGF1R (human) (UniProt P08069)
# [18] = target: TSSK2 (human) (UniProt Q96PF2)
# [19] = target: BLK (human) (UniProt P51451)
# [20] = target: MYLK (human) (UniProt Q15746)
# [21] = target: RPS6KA2 KD1 KD2 (human) (UniProt Q15349)
# [22] = target: GRK4 (human) (UniProt P32298)
# Sequence of GRK4 (human) (P32298 whole entry, looked up): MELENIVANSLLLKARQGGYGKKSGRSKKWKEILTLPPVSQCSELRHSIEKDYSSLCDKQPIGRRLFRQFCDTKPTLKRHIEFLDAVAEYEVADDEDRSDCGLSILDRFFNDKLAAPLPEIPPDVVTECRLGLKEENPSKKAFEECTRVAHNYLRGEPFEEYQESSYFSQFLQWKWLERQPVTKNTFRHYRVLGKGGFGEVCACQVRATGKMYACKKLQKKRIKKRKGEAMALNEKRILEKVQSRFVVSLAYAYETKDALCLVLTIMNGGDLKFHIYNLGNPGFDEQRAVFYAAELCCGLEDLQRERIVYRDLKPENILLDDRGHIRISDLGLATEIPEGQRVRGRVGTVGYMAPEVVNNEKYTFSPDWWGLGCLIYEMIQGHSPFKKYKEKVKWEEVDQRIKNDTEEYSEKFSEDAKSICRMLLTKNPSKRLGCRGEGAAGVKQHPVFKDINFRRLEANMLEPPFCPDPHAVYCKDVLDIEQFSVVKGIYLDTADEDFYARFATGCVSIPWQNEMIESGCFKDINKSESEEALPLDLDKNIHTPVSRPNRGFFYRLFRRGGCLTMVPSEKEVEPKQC
# [23] = target: KIT (human) (UniProt P10721)
# [24] = target: TSSK1B (human) (UniProt Q9BXA7)
# [25] = target: CDK1 CCNB1 (human) (UniProt P06493+P14635)
# [26] = target: PAK3 (human) (UniProt O75914)
# [27] = target: MAP3K7 TAB1 (human) (UniProt O43318+Q15750)
# [28] = target: CHUK (human) (UniProt O15111)
# [29] = target: HIPK4 (human) (UniProt Q8NE63)
# [30] = target: MAP2K2 (human) (UniProt P36507)
# [31] = target: MAPK14 (human) (UniProt Q16539)
# [32] = target: TEK (human) (UniProt Q02763)
# Sequence of TEK (human) (Q02763 whole entry, looked up): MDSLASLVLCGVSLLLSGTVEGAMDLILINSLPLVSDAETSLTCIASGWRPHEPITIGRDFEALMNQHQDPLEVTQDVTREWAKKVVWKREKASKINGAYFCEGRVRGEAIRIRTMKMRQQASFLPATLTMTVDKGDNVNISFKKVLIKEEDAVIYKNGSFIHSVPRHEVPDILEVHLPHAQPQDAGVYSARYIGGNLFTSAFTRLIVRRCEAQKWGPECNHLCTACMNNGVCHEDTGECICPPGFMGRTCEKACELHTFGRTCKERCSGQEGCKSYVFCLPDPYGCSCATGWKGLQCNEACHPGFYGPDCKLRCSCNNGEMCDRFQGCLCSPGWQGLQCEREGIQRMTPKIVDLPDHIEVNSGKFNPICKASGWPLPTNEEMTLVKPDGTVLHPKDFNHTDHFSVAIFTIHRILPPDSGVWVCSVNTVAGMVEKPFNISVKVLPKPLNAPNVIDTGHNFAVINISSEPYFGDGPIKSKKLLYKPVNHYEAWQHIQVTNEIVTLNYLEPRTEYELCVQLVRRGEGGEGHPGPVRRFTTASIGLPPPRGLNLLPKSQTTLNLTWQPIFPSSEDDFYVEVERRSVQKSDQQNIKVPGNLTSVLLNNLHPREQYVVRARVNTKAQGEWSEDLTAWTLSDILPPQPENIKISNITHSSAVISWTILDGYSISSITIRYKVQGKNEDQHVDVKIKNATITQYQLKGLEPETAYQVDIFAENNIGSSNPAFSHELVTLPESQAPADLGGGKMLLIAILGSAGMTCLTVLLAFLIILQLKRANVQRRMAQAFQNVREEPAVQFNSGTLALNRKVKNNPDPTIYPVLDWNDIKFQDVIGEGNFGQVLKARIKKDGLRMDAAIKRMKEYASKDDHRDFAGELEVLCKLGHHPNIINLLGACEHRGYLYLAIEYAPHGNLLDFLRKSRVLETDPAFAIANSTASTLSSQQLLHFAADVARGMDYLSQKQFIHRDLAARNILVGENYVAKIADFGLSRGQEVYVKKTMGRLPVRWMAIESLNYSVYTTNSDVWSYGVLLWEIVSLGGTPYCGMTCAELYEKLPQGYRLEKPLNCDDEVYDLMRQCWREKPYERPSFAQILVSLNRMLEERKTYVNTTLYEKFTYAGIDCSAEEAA
# [33] = target: TNK2 (human) (UniProt Q07912)
# [34] = target: PLK3 (human) (UniProt Q9H4B4)
# [35] = target: VRK1 (human) (UniProt Q99986)
# [36] = target: RPS6KA6 KD1 KD2 (human) (UniProt Q9UK32)
# [37] = target: HIPK1 (human) (UniProt Q86Z02)
# [38] = target: TYK2 JH1 catalytic (human) (UniProt P29597)
# [39] = target: PRKCG (human) (UniProt P05129)
# [40] = target: MST1R (human) (UniProt Q04912)
# [41] = target: MAP3K10 (human) (UniProt Q02779)
# Sequence of CDK6 CCND3 (human) (P30281 whole entry, looked up): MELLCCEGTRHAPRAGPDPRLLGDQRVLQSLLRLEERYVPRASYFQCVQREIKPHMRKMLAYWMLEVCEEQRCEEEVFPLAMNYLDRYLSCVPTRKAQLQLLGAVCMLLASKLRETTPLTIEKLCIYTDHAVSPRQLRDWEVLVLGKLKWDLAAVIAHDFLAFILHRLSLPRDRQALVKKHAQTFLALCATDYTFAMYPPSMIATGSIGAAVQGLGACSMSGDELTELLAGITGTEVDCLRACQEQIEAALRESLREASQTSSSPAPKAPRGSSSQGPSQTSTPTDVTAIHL
# Sequence of CDK6 CCND3 (human) (Q00534 whole entry, looked up): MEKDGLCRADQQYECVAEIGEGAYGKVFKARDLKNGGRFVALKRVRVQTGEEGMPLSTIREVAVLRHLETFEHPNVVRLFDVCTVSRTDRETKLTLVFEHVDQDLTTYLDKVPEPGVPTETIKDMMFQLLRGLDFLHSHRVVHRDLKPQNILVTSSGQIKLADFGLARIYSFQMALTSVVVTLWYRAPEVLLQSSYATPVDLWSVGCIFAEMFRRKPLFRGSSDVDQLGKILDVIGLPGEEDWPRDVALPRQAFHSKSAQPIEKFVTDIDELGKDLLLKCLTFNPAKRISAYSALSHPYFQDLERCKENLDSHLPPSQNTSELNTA
structure (smiles),measurement,setting,value
Cc1cncc2cccc(S(=O)(=O)N3CCCN(C(=O)CN)C[C@H]3C)c12,residual activity,[1],104%
same,residual activity,[2],96.2%
same,residual activity,[3],79.5%
same,residual activity,[4],94.4%
same,residual activity,[5],104%
same,residual activity,[6],98.8%
same,residual activity,[7],90.1%
same,residual activity,[8],100%
same,residual activity,[9],93.1%
same,residual activity,[10],99.7%
same,residual activity,[11],95.8%
same,residual activity,[12],100%
same,residual activity,[13],88.7%
same,residual activity,[14],101%
same,residual activity,[15],104%
same,residual activity,[16],78.4%
same,residual activity,[17],110%
same,residual activity,[18],99.6%
same,residual activity,[19],97.7%
same,residual activity,[20],103%
same,residual activity,[21],89.2%
same,residual activity,[22],94%
same,residual activity,[23],92.9%
same,residual activity,[24],103%
same,residual activity,[25],96.9%
same,residual activity,[26],105%
same,residual activity,[27],94.9%
same,residual activity,[28],105%
same,residual activity,[29],91.1%
same,residual activity,[30],106%
same,residual activity,[31],110%
same,residual activity,[32],98.6%
same,residual activity,[33],84.5%
same,residual activity,[34],98.4%
same,residual activity,[35],102%
same,residual activity,[36],105%
same,residual activity,[37],99.1%
same,residual activity,[38],86.6%
same,residual activity,[39],101%
same,residual activity,[40],99.3%
same,residual activity,[41],105%
c1ccc2c(-c3ccncc3)c[nH]c2c1,residual activity,[1],101%
same,residual activity,[2],103%
same,residual activity,[3],84.6%
same,residual activity,[4],97.3%
same,residual activity,[5],107%
same,residual activity,[6],97.8%
same,residual activity,[7],91.5%
same,residual activity,[8],101%
same,residual activity,[9],95.3%
same,residual activity,[10],84%
same,residual activity,[11],94.7%
same,residual activity,[12],97%
same,residual activity,[13],78.9%
same,residual activity,[14],96.2%
same,residual activity,[15],105%
same,residual activity,[16],83.7%
same,residual activity,[17],105%
same,residual activity,[18],96.9%
same,residual activity,[19],99.6%
same,residual activity,[20],96.8%
same,residual activity,[21],89%
same,residual activity,[22],94.9%
same,residual activity,[23],93.2%
same,residual activity,[24],103%
same,residual activity,[25],96%
same,residual activity,[26],102%
same,residual activity,[27],95.5%
same,residual activity,[28],107%
same,residual activity,[29],93.8%
same,residual activity,[30],103%
same,residual activity,[31],104%
same,residual activity,[32],101%
same,residual activity,[33],96.1%
same,residual activity,[34],95.3%
same,residual activity,[35],101%
same,residual activity,[36],112%
same,residual activity,[37],97.4%
same,residual activity,[38],101%
same,residual activity,[39],99.4%
same,residual activity,[40],98.9%
same,residual activity,[41],101%
CN(C)c1ccc(/C=C2\C(=O)Nc3ccccc32)cc1,residual activity,[1],96.4%
same,residual activity,[2],95.1%
same,residual activity,[3],97.4%
same,residual activity,[4],78%
same,residual activity,[5],98.8%
same,residual activity,[6],100%
same,residual activity,[7],15.3%
same,residual activity,[8],112%
same,residual activity,[9],113%
same,residual activity,[10],102%
same,residual activity,[11],104%
same,residual activity,[12],96.6%
same,residual activity,[13],96.4%
same,residual activity,[14],82.6%
same,residual activity,[15],85.8%
same,residual activity,[16],97.7%
same,residual activity,[17],101%
same,residual activity,[18],101%
same,residual activity,[19],99.2%
same,residual activity,[20],90.5%
same,residual activity,[21],89.1%
same,residual activity,[22],103%
same,residual activity,[23],45.6%
same,residual activity,[24],102%
same,residual activity,[25],94.1%
same,residual activity,[26],99%
same,residual activity,[27],100%
same,residual activity,[28],93.4%
same,residual activity,[29],98.3%
same,residual activity,[30],99.4%
same,residual activity,[31],92.4%
same,residual activity,[32],102%
same,residual activity,[33],101%
same,residual activity,[34],97%
same,residual activity,[35],89%
same,residual activity,[36],93.9%
same,residual activity,[37],103%
same,residual activity,[38],103%
same,residual activity,[39],96.8%
same,residual activity,[40],106%
same,residual activity,[41],96.6%
O=C1NC(=O)c2c1c1c3ccccc3[nH]c1n1cncc21,residual activity,[1],74.3%
same,residual activity,[2],66.9%
same,residual activity,[3],78.6%
same,residual activity,[4],42%
same,residual activity,[5],91.9%
same,residual activity,[6],88.7%
same,residual activity,[7],9.86%
same,residual activity,[8],75.2%
same,residual activity,[9],140%
same,residual activity,[10],99%
same,residual activity,[11],103%
same,residual activity,[12],89.8%
same,residual activity,[13],54.4%
same,residual activity,[14],33.7%
same,residual activity,[15],68.4%
same,residual activity,[16],102%
same,residual activity,[17],76.8%
same,residual activity,[18],99.1%
same,residual activity,[19],73.9%
same,residual activity,[20],15.5%
same,residual activity,[21],32.7%
same,residual activity,[22],101%
same,residual activity,[23],38%
same,residual activity,[24],84.4%
same,residual activity,[25],85.5%
same,residual activity,[26],100%
same,residual activity,[27],63.4%
same,residual activity,[28],100%
same,residual activity,[29],98.5%
same,residual activity,[30],85.9%
same,residual activity,[31],101%
same,residual activity,[32],78.9%
same,residual activity,[33],41.3%
same,residual activity,[34],48.2%
same,residual activity,[35],78.1%
same,residual activity,[36],33.4%
same,residual activity,[37],82.6%
same,residual activity,[38],85.4%
same,residual activity,[39],117%
same,residual activity,[40],102%
same,residual activity,[41],82.5%
COc1cc2ncnc(Nc3ccc(Oc4ccccc4)cc3)c2cc1OC,residual activity,[1],108%
same,residual activity,[2],102%
same,residual activity,[3],77.8%
same,residual activity,[4],40.6%
same,residual activity,[5],99.7%
same,residual activity,[6],98.9%
same,residual activity,[7],3.23%
same,residual activity,[8],101%
same,residual activity,[9],93.1%
same,residual activity,[10],78.7%
same,residual activity,[11],93.7%
same,residual activity,[12],101%
same,residual activity,[13],89.8%
same,residual activity,[14],101%
same,residual activity,[15],95.6%
same,residual activity,[16],8.79%
same,residual activity,[17],102%
same,residual activity,[18],103%
same,residual activity,[19],9.95%
same,residual activity,[20],105%
same,residual activity,[21],98%
same,residual activity,[22],97.1%
same,residual activity,[23],75.6%
same,residual activity,[24],104%
same,residual activity,[25],81.2%
same,residual activity,[26],98.1%
same,residual activity,[27],102%
same,residual activity,[28],101%
same,residual activity,[29],91.8%
same,residual activity,[30],105%
same,residual activity,[31],103%
same,residual activity,[32],99.7%
same,residual activity,[33],49%
same,residual activity,[34],97.1%
same,residual activity,[35],98.2%
same,residual activity,[36],111%
same,residual activity,[37],102%
same,residual activity,[38],107%
same,residual activity,[39],84.6%
same,residual activity,[40],95.7%
same,residual activity,[41],96.7%
